Data taken from paper PMC10933344, “A lncRNA Dleu2-encoded peptide relieves autoimmunity by facilitating Smad3-mediated Treg induction” (EMBO Reports, 2024).

Test system: TGF-β/Smad signaling in CD4+ T cells
Assay: qPCR analysis of TGF-β/Smad signaling downstream genes
Format: cell-based, mouse
Details: 20 μM 17aa, 24 h
Experimental: Figure 4 Dleu2-17aa modulates TGF-β/Smad signaling to promote Foxp3 transcription. (A) qPCR analysis of TGF-β/Smad signaling downstream genes in CD4^+ T cells treated with Dleu2-17aa or scrPEP for 24 h and challenged with TGF-β to activate the signaling pathway (n = 3). (B) NIH/3T3 cells were transfected with a Foxp3 CNS1-luciferase reporter plasmid and a Smad3 expression vector. Subsequently, the cells were treated with either Dleu2-17aa or scrPEP. Luciferase activity fold induction was quantified (n = 3). (C) Foxp3 CNS1 region enrichment by Smad3 treated with or without Dleu2-17aa for 24 h in CD4^+ T cells was assessed by ChIP-qPCR (n = 3). (D) EMSA was performed in NIH/3T3 cell nuclear lysates using a 10 μM biotin-labeled Foxp3 probe and treated with Dleu2-17aa or scrPEP (3, 10, 30 μM). There were band shifts to a higher molecular weight and an increase in band intensity by Dleu2-17aa treatment. Data information: n indicates biological replicate. Error bars are mean ± SEM; **P < 0.01, and ***P < 0.001. Statistical analysis was by two-tailed Student’s t-test for (A–C). Source data are available online for this figure.
Total RNA from cells or tissues was extracted using TRIzol reagent (Invitrogen) and then quantified. 1 μg of total RNA was reverse transcribed into cDNA with HiScript II Q RT SuperMix for qPCR (+gDNA Wiper) (Vazyme, China, R223-01). The cDNA samples were run in triplicate at 200 ng/well. Quantitative real-time PCR (qPCR) was performed using ChamQ Universal SYBR qPCR Master Mix (Vazyme, China) on an Applied Biosystems 7500 Fast Real-Time PCR System or a ViiA 7 Real-Time PCR System (Applied Biosystems). All gene expression results were normalized to the expression of the housekeeping gene GAPDH. Primer sequences are listed as follows: Dleu2 forward, 5′-[…]-3 and reverse, 5′-[…]-3; Foxp3 forward, 5′-CCCATCCCCAGGAGTCTTG-3′ and reverse, 5′-[…]-3′; Ctla2a forward, 5′-[…]-3′ and reverse, 5′-[…]-3′; Ccr8 forward, 5′-[…]-3′ and reverse, 5′-[…]-3′; Tgf-β forward: 5′-[…]-3′ and reverse, 5′-[…]-3′; Ctla4 forward, 5′-[…]-3′ and reverse, 5′-[…]-3′; Gapdh forward, 5′-[…]-3′ and reverse, 5′-GGGGTCGTTGATGGCAAC-3′.

## ARGPARRMRGGRRRRLR [scrPEP, scrambled control peptide of Dleu2-17aa]
TGF-β, replicate 1
  Relative mRNA expression, Ccr8: 1.77
  Relative mRNA expression, Clta4: 4.488
  Relative mRNA expression, Ctla2a: 7.981
  Relative mRNA expression, Foxp3: 19.2862
  Relative mRNA expression, Tgf-β: 0.9918
TGF-β, replicate 2
  Relative mRNA expression, Ccr8: 1.871
  Relative mRNA expression, Clta4: 3.767
  Relative mRNA expression, Ctla2a: 6.697
  Relative mRNA expression, Foxp3: 27.373
  Relative mRNA expression, Tgf-β: 0.9024
TGF-β, replicate 3
  Relative mRNA expression, Ccr8: 1.768
  Relative mRNA expression, Clta4: 4.326
  Relative mRNA expression, Ctla2a: 4.254
  Relative mRNA expression, Foxp3: 26.607
  Relative mRNA expression, Tgf-β: 1.365
No TGF-β, replicate 1
  Relative mRNA expression, Ccr8: 1
  Relative mRNA expression, Clta4: 1
  Relative mRNA expression, Ctla2a: 1
  Relative mRNA expression, Foxp3: 1
  Relative mRNA expression, Tgf-β: 1
No TGF-β, replicate 2
  Relative mRNA expression, Ccr8: 0.871
  Relative mRNA expression, Clta4: 0.794
  Relative mRNA expression, Ctla2a: 0.868
  Relative mRNA expression, Foxp3: 1
  Relative mRNA expression, Tgf-β: 0.7198
No TGF-β, replicate 3
  Relative mRNA expression, Ccr8: 1
  Relative mRNA expression, Clta4: 0.856
  Relative mRNA expression, Ctla2a: 1
  Relative mRNA expression, Foxp3: 0.967
  Relative mRNA expression, Tgf-β: 0.8563
